The text below walks through data of patent US5032584A, “S-diastereomer of an n^6 -((2-hydroxypropyl)aryl)adenosine and its medicinal uses” (G. D. Searle & Co., priority 1988, dated 1991).

Series [1] concerns plasma renin activity (PRA). The series is described as follows: Change in plasma renin activity in the bilateral renal artery ligated rat. It counts as in vivo, Sprague-Dawley rats. The following applies: 1 mg/kg I.V.; for Prevention of PRA increase (in words): 30 and 60 minutes. The method, then:
Adenosine Al receptor stimulation will inhibit the release of renin from the kidney. A stimulus for the release of renin is renal ischemia. The ability of the compounds of the present invention to prevent an increase in PRA following renal ischemia was tested in rats with both renal arteries ligated. Sprague-Dawley rats were anesthetized with ether and the renal arteries were ligated. Three to five hours after anesthesia, arterial blood was sampled and compounds I and II were administered in polyethylene glycol at 1 mg/kg I.V. At 30 and 60 minutes after administration, arterial blood was sampled for PRA measurement by the method of Sealy, J. E. et al., Cardiovasc. Med. 2:1079, 1977.

A further series in a line: Solubility in MeOH. It is filed as physicochemical. The following applies: S isomer vs R isomer.
The test system of series [2] is spontaneously hypertensive rats (SHR). The series is described as follows: Effects on mean arterial pressure and heart rate in conscious spontaneously hypertensive rats (i.v. or intragastric). It counts as in vivo, rat. The method, then:
The effects of compounds I and II were tested intravenously or intragastrically in conscious spontaneously hypertensive rats (SHR). The rats were anesthetized with ether and the left carotid artery and right jugular vein were cannulated with polyethylene tubing. The rats were allowed three to five hours recovery from anesthesia for the I.V. studies and 12 to 18 hours for the oral studies. Mean arterial pressure (MAP, in mm/Hg) and heart rate (HR, beats/min.) were measured from the artery; intravenous administration of compounds was performed by injection into the vein. Oral administration was performed by gastric intubation. Compounds were dissolved in DMSO for I.V. studies and injected in volumes of 100 μ1/kg or less (N=5 per pound). Doses were 3 to 1,000 μg/kg. Compounds were dissolved in polyethylene glycol for oral administration and injected in volumes of 1 ml/kg at a dose of 20 mg/kg/day for three days (N=3 to 6 per compound).
The resting MAP and HR for the SHR ranged between 160-200 mm Hg and 330/350 b/min., respectively.

Series [3] has as its system mice. The series is described as follows: Ataxia on the rotating rod in mice. The following applies: for Percent ataxic, 0.5 hour / Percent ataxic, 3 hour: 54 ± 12 mg/kg ip (pooled 32, 56, 75 mg/kg). It is filed as in vivo. As to the method: (§1) Adenosine analogs tend to produce sedation and central nervous system depression which have prevented their therapeutic utility. The compounds of the invention, at doses which lower arterial pressure in the SHR, show no evidence of CNS depression. The ataxia produced by compounds of the present invention was measured in mice by injecting the compounds IP at doses of 32, 56, or 75 mg/kg in an aqueous suspension, n=7 per dose. The mice had previously been trained to remain on a rotating rod. After dosing, the percent of mice unable to remain on the rotating rod was determined. […] The mice were also observed at various time intervals for behavioral signs of toxicity.

Series [4] deals with mice. The series is described as follows: Behavioral toxicity in mice after 75 mg/kg IP. It is filed as in vivo. Details: key to Motor depression / Ptosis / Respiratory depression / Flaccidity / Loss of righting reflex: +: toxic symptom observed. The method, then: as §1
For series [5], the system named is adenosine A1 receptor in the granular juxtaglomerular cells of the kidney. The following applies: Federation Proceedings 44:879 & 1643, 1985; cited from earlier work.
Where [6] appears, read: 20 mg/kg intragastric, day 2 of oral administration.

“Also recorded” adds a separate entry of the source.

In the case of `OC[C@H]1O[C@@H](n2cnc3c(NC[C@H](O)COc4cccc5ccccc45)ncnc32)[C@H](O)[C@@H]1O` [Compound II, N^6-[2S-hydroxy-3-(1naphthalenyloxy)propyl]-adenosine], in series [1], the “Prevention of PRA increase (in words)” value is given as “prevented to the same extent”. Besides, the “Change in PRA, 30 minutes” value in series [1] (30 min after dosing) is on record as -11.7 ± 3.5 ngAI/ml/hr. For the same compound, the “Change in PRA, 60 minutes” value in series [1] (60 min after dosing) was -13.8 ± 4.9 ngAI/ml/hr. For the same compound, in the series “Solubility in MeOH”, the “Solubility in MeOH (in words)” value is reported as “less soluble in MeOH”. Also, in series [2] (setting [6]), the “Maximum decrease at 20 mg/kg ig, HR” value is 202 ± 24 b/min and the “Maximum decrease at 20 mg/kg ig, MAP” value amounted to 62 ± 7 mmHg. The ED (HR decrease by 100 b/min) in series [2] (Rattus norvegicus, iv, i.v. in DMSO, read-out: IV dose to decrease HR by 100 b/min) is 0.036 ± 0.0012 mg/kg. The ED (MAP decrease by 40 mmHg) in series [2] (Rattus norvegicus, iv, i.v. in DMSO, read-out: IV dose to decrease MAP by 40 mmHg) was 0.047 ± 0.0012 mg/kg. For the same compound, in the series with mice [3], the “Percent ataxic, 0.5 hour” value was 14 ± 8% and the “Percent ataxic, 3 hour” value is 48 ± 21%. Also, the “Central nervous system toxicity (in words)” value in the series with mice [3] (compared to compound I / racemic mixture) is on record as “less CNS toxic than compound I, especially with regard to ataxia; also recorded: less central nervous system toxicity than the racemic mixture”. Also, the “Ataxia / motor toxicity (in words)” value with mice [3] (mice, ip, compared to compound I) is reported as “less ataxia at 0.5 or 3 hours as compared to compound I; also recorded: less motor toxicity than compound I”. In the series on mice [4] (75 mg/kg IP, 18-20 h), the Flaccidity result is “+”, the Motor depression entry is reported as “+” and the Ptosis entry is “+”. In addition, in the series on mice [4] (75 mg/kg IP, 0.5 h), the Motor depression result is on record as “+” and the Ptosis result is listed as “+”. Also, in the series on mice [4] (75 mg/kg IP, 3 h), the Motor depression result is on record as “+” and the Ptosis entry is “+”. Besides, in the series on mice [4] (75 mg/kg IP, 24 h), the Motor depression entry is “+”; the “Motor depression, incidence” value is given as 5/7; the Ptosis entry is listed as “+”; the “Ptosis, incidence” value is recorded as 5/7. Also, the “Respiratory depression, incidence” value in the series with mice [4] (75 mg/kg IP, 24 h) is listed as 5/7. Further, the Respiratory depression result in the series with mice [4] (mouse, in vivo) is listed as “+”.
On to `OC[C@H]1O[C@@H](n2cnc3c(NC[C@@H](O)COc4cccc5ccccc45)ncnc32)[C@H](O)[C@@H]1O` [R isomer], for which, in the series “Solubility in MeOH”, the “Solubility in MeOH (in words)” value is “more soluble in MeOH”.
With `OC[C@H]1O[C@@H](n2cnc3c(NCC(O)COc4cccc5ccccc45)ncnc32)[C@H](O)[C@@H]1O` (mixture of isomers) [Compound I, N(6)-[2-hydroxy-3-(1-naphthyloxy)propyl]-adenosine], in series [1], the “Prevention of PRA increase (in words)” value was “prevented to the same extent”. Further, in the series on mice [3], the “Percent ataxic, 0.5 hour” value is reported as 33 ± 10% and the “Percent ataxic, 3 hour” value is 95 ± 5%. Further, in the series on mice [4] (75 mg/kg IP, 18-20 h), the Flaccidity result is recorded as “+”; the “Flaccidity, incidence (footnote *)” value is 2/7; the Motor depression entry was “+”; the Ptosis result was “+”. For the same compound, the Respiratory depression entry in the series with mice [4] (75 mg/kg IP, 18-20 h) is on record as “+”. In the series with mice [4] (75 mg/kg IP, 0.5 h), the Motor depression entry is listed as “+”, the Ptosis result is given as “+” and the Respiratory depression entry is recorded as “+”. In addition, in the series with mice [4] (75 mg/kg IP, 3 h), the “Behavioral toxicity (in words)” value was “flaccidity and loss of righting reflex”; the Flaccidity result is given as “+”; the “Loss of righting reflex” value was “+”; the Motor depression entry is recorded as “+”. For the same compound, in the series on mice [4] (75 mg/kg IP, 3 h), the Ptosis entry was “+” and the Respiratory depression result is reported as “+”. Also, the “Binding to adenosine A1 receptor and effect on renin release, blood pressure, heart rate (in words)” value in series [5] is “binds to the adenosine Al receptor in the granular juxtaglomerular cells of the kidney to inhibit release of renin into the plasma, ultimately resulting in a reduction in circulating angiotensin II, thus reducing arterial blood pressure and heart rate in hypertensive models”.
